Experimental data as given in ChEMBL document CHEMBL2434836, “Studies on substituted benzo[h]quinazolines, benzo[g]indazoles, pyrazoles, 2,6-diarylpyridines as anti-tubercular agents” (Bioorg Med Chem Lett, 2013).

What was measured:
[1] = test system: Mycobacterium tuberculosis; assay: Antitubercular activity against Mycobacterium tuberculosis H37Rv assessed as growth inhibition by micro plate alamar blue assay; format: functional
[2] = Cytotoxicity against human THP1 cells after 24 hrs by MTT assay; format: cell-based, THP-1
[3] = Safety index, ratio of CC50 for human THP1 cells to MIC for Mycobacterium tuberculosis H37Rv; format: toxicity, cell-based, THP-1

Structure (SMILES) | MIC [1] | CC50 at 24 h [2] [µM] | selectivity ratio [3]
CCOC(=O)CCCCCOc1ccc(-c2nc(N)nc3c2CCc2cc(OC)ccc2-3)cc1 | 200 µM |  | 
CO[C@H]1/C=C/O[C@@]2(C)Oc3c(C)c(O)c4c(O)c(c(/C=N/N5CCN(C)CC5)c(O)c4c3C2=O)NC(=O)/C(C)=C\C=C\[C@H](C)[C@H](O)[C@@H](C)[C@@H](O)[C@@H](C)[C@H](OC(C)=O)[C@@H]1C [RIFAMPIN] | 2 µM |  | 
N#Cc1c(N2CCCCC2)cc(-c2ccccc2)nc1-c1ccccc1 | > 200 µM |  | 
CCSc1nc(Cl)c(C#N)c(-c2ccc(F)cc2F)n1 | 0.78 µg/mL |  | 
CCOC(=O)/C(C#N)=C(\CC(=O)c1ccccc1)N1CCCCC1 | > 200 µM |  | 
COc1ccc2c(c1)CCC1C2=NN(C(C)=O)C1c1ccc(OC(C)CN(C)C)cc1 (configuration not stated) | 200 µM |  | 
CCOC(=O)CCCOc1ccc(-c2nc(N)nc3c2CCc2cc(OC)ccc2-3)cc1 | 50 µM | 200 | 
N#CCc1cc(-c2ccc(Cl)cc2)[nH]n1 | > 200 µM |  | 
COc1ccc(-c2cc(CC#N)n[nH]2)cc1 | 200 µM |  | 
COc1ccc2c(c1)CCC1C2=NN(C(C)=O)C1c1ccc(OCCN2CCCC2)cc1 (configuration not stated) | 200 µM |  | 
O=c1nc2ccccn2cc1-c1cc(-c2ccccc2)[nH]n1 | > 200 µM |  | 
COc1ccc2c(c1)CCc1c(-c3ccc(OCCN(C)C)cc3)nc(N)nc1-2 | 100 µM | 200 | 
COc1ccc2c(c1)CCc1c(-c3ccc(O)cc3)nc(N)nc1-2 | > 200 µM |  | 
COc1ccc2c(c1)CCc1c(-c3ccc(OC(C)CN(C)C)cc3)nc(N)nc1-2 (configuration not stated) | 200 µM |  | 
N#CCc1cc(-c2ccc(Br)cc2)[nH]n1 | 25 µM | > 200 | 8
CN(C)/C=C(\C#N)c1cc(-c2ccccc2)[nH]n1 | 200 µM |  | 
CCOC(=O)CCCCOc1ccc(-c2nc(N)nc3c2CCc2cc(OC)ccc2-3)cc1 | 200 µM |  | 
Cc1ccc(-c2cc(N3CCOCC3)c(C#N)c(-c3ccccc3)n2)cc1 | > 200 µM |  | 
CN[C@@H]1[C@H](O[C@H]2[C@H](O[C@H]3[C@H](O)[C@@H](O)[C@H](N=C(N)N)[C@@H](O)[C@@H]3N=C(N)N)O[C@@H](C)[C@]2(O)C=O)O[C@@H](CO)[C@H](O)[C@H]1O [STREPTOMYCIN] | 6 µM |  | 
CN(C)/C=C(\C#N)c1cc(-c2ccc(Cl)cc2)[nH]n1 | > 200 µM |  | 
NC(=O)c1c(N2CCCCC2)cc(-c2ccc(Br)cc2)nc1-c1ccccc1 | > 200 µM |  | 

Structure (SMILES) | MIC [1] | CC50 at 24 h [2] [µM] | selectivity ratio [3]
COc1ccc2c(c1)CCc1c(-c3ccc(OCCN4CCCC4)cc3)nc(N)nc1-2 | 200 µM |  | 
COc1ccc(-c2cc(/C(C#N)=C/N(C)C)n[nH]2)cc1 | 100 µM | > 200 | 
Cc1ccc(-c2cc(/C(C#N)=C/N(C)C)n[nH]2)cc1 | > 200 µM |  | 
COc1ccc(-c2cc3ccnc(-c4ccccc4)n3n2)cc1 | > 200 µM |  | 
COc1ccc2c(c1)CCC1C2=NN(C(C)=O)C1c1ccc(OCCN2CCCCC2)cc1 (configuration not stated) | > 200 µM |  | 
COc1ccc2c(c1)CCc1c(-c3ccc(OCCCC(=O)NN)cc3)nc(N)nc1-2 | 200 µM |  | 
COc1ccc2c(c1)CCc1c(-c3ccc(OCCN4CCCCC4)cc3)nc(N)nc1-2 | 50 µM | 200 | 
Cc1ccc(-c2cc(N3CCCCC3)c(C#N)c(-c3ccccc3)n2)cc1 | > 200 µM |  | 
COc1ccc2c(c1)CCc1c(-c3ccc(OCCCCC(=O)NN)cc3)nc(N)nc1-2 | 200 µM |  | 
N#Cc1c(N2CCCCC2)cc(-c2ccc(Cl)cc2)nc1-c1ccccc1 | > 200 µM |  | 
Cc1ccc(-c2cc(CC#N)n[nH]2)cc1 | > 200 µM |  | 
COc1ccc2c(c1)CCC1C2=NN(C(C)=O)C1c1ccc(O)cc1 (configuration not stated) | > 200 µM |  | 
CCN(CC)CCOc1ccc(C2C3CCc4cc(OC)ccc4C3=NN2C(C)=O)cc1 (configuration not stated) | 200 µM |  | 
CC1=NN(C(=O)c2cc(-c3ccc(Cl)cc3)n[nH]2)C(=O)/C1=N/Nc1cccc(F)c1 | 0.35 µg/mL |  | 
COc1ccc2c(c1)CCC1C2=NN(C(C)=O)C1c1ccc(OCCN(C)C)cc1 (configuration not stated) | 200 µM |  | 
COc1ccc(-c2cc(N3CCCCC3)c(C#N)c(-c3ccccc3)n2)cc1 | > 200 µM |  | 
CN(C)/C=C(\C#N)c1cc(-c2ccc(Br)cc2)[nH]n1 | > 200 µM |  | 
N#Cc1c(N2CCCCC2)cc(-c2ccc(Br)cc2)nc1-c1ccccc1 | > 200 µM |  | 
COc1ccc2c(c1)CCc1c(-c3ccc(OCCCCCC(=O)NN)cc3)nc(N)nc1-2 | 200 µM |  | 
NNC(=O)c1ccncc1 [ISONIAZID] | 0.2 µM |  | 
